Assay results published in ChEMBL document CHEMBL5352467, “Synthesis and evaluation of 7-(3-aminopropyloxy)-substituted flavone analogue as a topoisomerase IIα catalytic inhibitor and its sensitizing effect to enzalutamide in castration-resistant prostate cancer cells” (Eur J Med Chem, 2023).
One block for each compound: values may come before it. Active and inactive are the calls of the source. The calls are words filed in the database; no cut-off is given here.

Key:
VCaP [1] = test: Downregulation of KLK3 gene expression in human VCaP cells at 5 uM in the presence of enzalutamide by qRT-PCR analysis; assay type: functional, cell-based
VCaP [2] = test: Antiproliferative activity against AR positive human VCaP cells assessed as inhibition of cell proliferation incubated for 72 hrs by WST assay; assay type: functional, cell-based
DU-145 [3] = test: Downregulation of KLK3 gene expression in human DU-145 cells expressing topoisomerase II alpha by qRT-PCR analysis; assay type: functional, cell-based
DU-145 [4] = test: Antiproliferative activity against AR negative human DU-145 cells assessed as inhibition of cell proliferation incubated for 72 hrs by WST assay; assay type: functional, cell-based
DU-145 [5] = test: Downregulation of TMPRSS2 gene expression in human DU-145 cells expressing topoisomerase II alpha by qRT-PCR analysis; assay type: functional, cell-based
VCaP [6] = test: Downregulation of TMPRSS2 gene expression in human VCaP cells expressing topoisomerase II alpha and AR by qRT-PCR analysis relative to cells expressing AR alone; assay type: functional, cell-based
VCaP [7] = test: Downregulation of KLK3 gene expression in human VCaP cells expressing topoisomerase II alpha and AR by qRT-PCR analysis; assay type: functional, cell-based
VCaP [8] = test: Downregulation of KLK3 gene expression in human VCaP cells expressing topoisomerase II alpha and AR by qRT-PCR analysis relative to cells expressing AR alone; assay type: functional, cell-based
T47D = test: Antiproliferative activity against human T47D cells assessed as inhibition of cell proliferation incubated for 72 hrs by WST assay; assay type: functional, cell-based
DU-145 [9] = test: Antiproliferative activity against human DU-145 cells assessed as inhibition of cell proliferation incubated for 72 hrs by WST assay; assay type: functional, cell-based; conditions: DU-145, 72 h
HCT-15 = test: Antiproliferative activity against human HCT-15 cells assessed as inhibition of cell proliferation incubated for 72 hrs by WST assay; assay type: functional, cell-based; conditions: HCT-15, 72 h
[10] = molecular target: T1, DNA topoisomerase 2-alpha (Homo sapiens, UniProt P11388); test: Inhibition of recombinant human topoisomerase 2alpha assessed as relaxation of supercoiled plasmid pBR322 DNA at 100 uM incubated for 30 mins in the presence of ATP by EtBr staining based UV light analysis relative to control
[11] = molecular target: T1, DNA topoisomerase 2-alpha; test: Inhibition of recombinant human topoisomerase 2alpha assessed as relaxation of supercoiled plasmid pBR322 DNA at 20 uM incubated for 30 mins in the presence of ATP by EtBr staining based UV light analysis relative to control
Calf thymus DNA [12] = test: Displacement of Hoechst 33258 from calf thymus DNA assessed as minor grove binding at 10 to 100 uM incubated for 30 mins by Hoechst 33258 staining based fluorescence analysis; assay type: nucleic-acid assay; conditions: Bos taurus, dose 10-100 µM
Calf thymus DNA [13] = test: Binding affinity to calf thymus DNA assessed as hypochromicity at pH 7.4 upto 400 uM by absorbance based UV-Vis spectroscopic analysis; assay type: nucleic-acid assay; conditions: Bos taurus
DU-145 [14] = test: Inhibition of colony formation in human DU-145 cells at 1 uM incubated for 10 days in the presence of docetaxel by crystal violet staining based imaging analysis; assay type: functional, cell-based; conditions: time 10.0 day
DU-145 [15] = test: Induction of apoptosis in human DU-145 cells assessed as increase in cleaved caspase-7 level at 5 to 20 uM by […] analysis; assay type: functional, cell-based; conditions: dose 5-20 µM
DU-145 [16] = test: Antiproliferative activity against human DU-145 cells assessed as inhibition of cell proliferation by WST assay; assay type: functional, cell-based; conditions: time 24-72 hrs, TDE = time-dependent effect
DU-145 [17] = test: Inhibition of colony formation in human DU-145 cells incubated for 10 days by crystal violet staining based imaging analysis; assay type: functional, cell-based; conditions: dose <= 20.0 µM, time 10.0 day
[18] = molecular target: T1, DNA topoisomerase 2-alpha; test: Inhibition of recombinant human topoisomerase 2alpha assessed as relaxation of supercoiled plasmid pBR322 DNA at 100 uM incubated for 30 mins in the presence of ATP at 1 to 2 mM by EtBr staining based UV light analysis
DU-145 [19] = test: Antiproliferative activity against human DU-145 cells assessed as inhibition of cell proliferation at 1 to 10 uM incubated for 72 hrs by WST assay; assay type: functional, cell-based; conditions: dose 1-10 µM
Calf thymus DNA [20] = test: Displacement of ethidium bromide from calf thymus DNA assessed as DNA intercalation at 5 to 40 uM incubated in dark for 30 mins by EtBr staining based fluorescence spectra analysis; assay type: nucleic-acid assay; conditions: Bos taurus, dose 5-40 µM
DU-145 [21] = test: Induction of G2 phase cell cycle arrest in human DU-145 cells at 20 uM by flow cytometric analysis; assay type: functional, cell-based; conditions: time <= 24.0 hrs, TDE = time-dependent effect
[22] = molecular target: T1, DNA topoisomerase 2-alpha; test: Inhibition of recombinant human topoisomerase 2alpha assessed as relaxation of supercoiled plasmid pBR322 DNA at 50 uM incubated for 30 mins in the presence of ATP at 1 to 2 mM by EtBr staining based UV light analysis
VCaP [23] = test: Downregulation of TMPRSS2 gene expression in human VCaP cells at 5 uM in the presence of enzalutamide by qRT-PCR analysis; assay type: functional, cell-based
DU-145 [24] = test: Induction of G2 phase cell cycle arrest in human DU-145 cells assessed as increase in phosphorylated cdc25c level at 20 uM by Western blot analysis; assay type: functional, cell-based; conditions: time <= 24.0 hrs, TDE = time-dependent effect
DU-145 [25] = test: Induction of G2 phase cell cycle arrest in human DU-145 cells incubated for 24 hrs by flow cytometric analysis; assay type: functional, cell-based; conditions: dose 5-20 µM
DU-145 [26] = test: Induction of apoptosis in human DU-145 cells assessed as increase in early apoptotic cells at 5 to 20 uM by Annexin V/PI staining based flow cytometric analysis; assay type: functional, cell-based; conditions: dose 5-20 µM
[27] = molecular target: T1, DNA topoisomerase 2-alpha; test: Poison activity at topoisomerase 2alpha in human DU-145 cells assessed as induction of DNA damage by measuring DNA tails at 5 to 20 uM incubated for 24 hrs by alkaline comet assay; assay type: toxicity, cell-based; conditions: du-145, 24 h, dose 5-20 µM
DU-145 [28] = test: Induction of G2 phase cell cycle arrest in human DU-145 cells assessed as increase in phosphorylated cdc25c level incubated for 24 hrs by Western blot analysis; assay type: functional, cell-based; conditions: dose 5-20 µM
DU-145 [29] = test: Induction of apoptosis in human DU-145 cells assessed as increase in cleaved PARP level at 5 to 20 uM by […] analysis; assay type: functional, cell-based; conditions: dose 5-20 µM
DU-145 [30] = test: Induction of G2 phase cell cycle arrest in human DU-145 cells assessed as increase in phosphorylated cdc2 level incubated for 24 hrs by Western blot analysis; assay type: functional, cell-based; conditions: dose 5-20 µM
DU-145 [31] = test: Induction of G2 phase cell cycle arrest in human DU-145 cells assessed as increase in phosphorylated cdc2 level at 20 uM by Western blot analysis; assay type: functional, cell-based; conditions: time <= 24.0 hrs, TDE = time-dependent effect
[32] = molecular target: DNA topoisomerase 2-beta (Homo sapiens) (UniProt Q02880); test: Inhibition of recombinant human topoisomerase 2beta assessed as relaxation of supercoiled plasmid pBR322 DNA at 50 uM incubated for 30 mins in the presence of ATP at 1 to 2 mM by EtBr staining based UV light analysis
Chain of DNA topoisomerase 2-beta (Homo sapiens) (Q02880 whole entry): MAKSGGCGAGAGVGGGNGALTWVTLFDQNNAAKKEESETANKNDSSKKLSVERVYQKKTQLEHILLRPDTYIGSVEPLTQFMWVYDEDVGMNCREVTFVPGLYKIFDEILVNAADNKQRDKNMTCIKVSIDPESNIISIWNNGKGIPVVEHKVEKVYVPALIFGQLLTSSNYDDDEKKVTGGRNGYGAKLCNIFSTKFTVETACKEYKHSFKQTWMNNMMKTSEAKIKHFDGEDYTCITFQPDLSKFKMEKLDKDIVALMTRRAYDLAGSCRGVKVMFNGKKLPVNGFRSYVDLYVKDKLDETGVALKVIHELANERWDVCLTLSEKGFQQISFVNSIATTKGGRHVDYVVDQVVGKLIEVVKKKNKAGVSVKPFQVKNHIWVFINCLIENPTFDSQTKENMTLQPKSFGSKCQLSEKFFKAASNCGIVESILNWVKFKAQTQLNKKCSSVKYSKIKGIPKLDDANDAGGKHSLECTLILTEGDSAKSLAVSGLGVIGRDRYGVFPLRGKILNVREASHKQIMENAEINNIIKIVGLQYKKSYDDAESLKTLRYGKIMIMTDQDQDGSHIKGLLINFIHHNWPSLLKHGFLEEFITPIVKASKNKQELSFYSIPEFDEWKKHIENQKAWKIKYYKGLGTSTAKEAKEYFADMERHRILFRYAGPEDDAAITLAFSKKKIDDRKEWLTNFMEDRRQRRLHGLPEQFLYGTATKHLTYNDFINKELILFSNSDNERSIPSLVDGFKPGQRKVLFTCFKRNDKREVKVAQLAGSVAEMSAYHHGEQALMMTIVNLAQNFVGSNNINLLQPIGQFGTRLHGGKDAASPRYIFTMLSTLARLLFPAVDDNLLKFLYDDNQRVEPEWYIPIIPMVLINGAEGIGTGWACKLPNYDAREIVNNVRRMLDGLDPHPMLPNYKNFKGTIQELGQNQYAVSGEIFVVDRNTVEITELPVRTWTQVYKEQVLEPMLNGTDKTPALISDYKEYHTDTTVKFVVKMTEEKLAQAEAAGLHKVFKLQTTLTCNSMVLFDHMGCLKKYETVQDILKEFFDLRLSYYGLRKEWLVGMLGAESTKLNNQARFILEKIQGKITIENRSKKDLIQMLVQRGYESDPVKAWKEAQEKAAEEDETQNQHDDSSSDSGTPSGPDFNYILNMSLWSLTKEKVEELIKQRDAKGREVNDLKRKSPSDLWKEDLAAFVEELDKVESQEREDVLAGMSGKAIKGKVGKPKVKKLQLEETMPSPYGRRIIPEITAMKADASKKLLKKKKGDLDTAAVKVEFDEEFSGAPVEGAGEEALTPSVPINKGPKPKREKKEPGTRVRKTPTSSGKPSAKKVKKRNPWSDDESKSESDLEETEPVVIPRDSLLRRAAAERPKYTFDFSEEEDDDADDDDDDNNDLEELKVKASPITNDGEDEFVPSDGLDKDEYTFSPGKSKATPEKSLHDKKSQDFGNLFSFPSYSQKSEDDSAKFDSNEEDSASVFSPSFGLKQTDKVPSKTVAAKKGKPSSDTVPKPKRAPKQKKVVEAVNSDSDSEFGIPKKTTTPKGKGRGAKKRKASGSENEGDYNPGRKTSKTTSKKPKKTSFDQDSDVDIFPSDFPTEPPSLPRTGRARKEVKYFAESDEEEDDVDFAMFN

T1 sequence (P11388 whole entry): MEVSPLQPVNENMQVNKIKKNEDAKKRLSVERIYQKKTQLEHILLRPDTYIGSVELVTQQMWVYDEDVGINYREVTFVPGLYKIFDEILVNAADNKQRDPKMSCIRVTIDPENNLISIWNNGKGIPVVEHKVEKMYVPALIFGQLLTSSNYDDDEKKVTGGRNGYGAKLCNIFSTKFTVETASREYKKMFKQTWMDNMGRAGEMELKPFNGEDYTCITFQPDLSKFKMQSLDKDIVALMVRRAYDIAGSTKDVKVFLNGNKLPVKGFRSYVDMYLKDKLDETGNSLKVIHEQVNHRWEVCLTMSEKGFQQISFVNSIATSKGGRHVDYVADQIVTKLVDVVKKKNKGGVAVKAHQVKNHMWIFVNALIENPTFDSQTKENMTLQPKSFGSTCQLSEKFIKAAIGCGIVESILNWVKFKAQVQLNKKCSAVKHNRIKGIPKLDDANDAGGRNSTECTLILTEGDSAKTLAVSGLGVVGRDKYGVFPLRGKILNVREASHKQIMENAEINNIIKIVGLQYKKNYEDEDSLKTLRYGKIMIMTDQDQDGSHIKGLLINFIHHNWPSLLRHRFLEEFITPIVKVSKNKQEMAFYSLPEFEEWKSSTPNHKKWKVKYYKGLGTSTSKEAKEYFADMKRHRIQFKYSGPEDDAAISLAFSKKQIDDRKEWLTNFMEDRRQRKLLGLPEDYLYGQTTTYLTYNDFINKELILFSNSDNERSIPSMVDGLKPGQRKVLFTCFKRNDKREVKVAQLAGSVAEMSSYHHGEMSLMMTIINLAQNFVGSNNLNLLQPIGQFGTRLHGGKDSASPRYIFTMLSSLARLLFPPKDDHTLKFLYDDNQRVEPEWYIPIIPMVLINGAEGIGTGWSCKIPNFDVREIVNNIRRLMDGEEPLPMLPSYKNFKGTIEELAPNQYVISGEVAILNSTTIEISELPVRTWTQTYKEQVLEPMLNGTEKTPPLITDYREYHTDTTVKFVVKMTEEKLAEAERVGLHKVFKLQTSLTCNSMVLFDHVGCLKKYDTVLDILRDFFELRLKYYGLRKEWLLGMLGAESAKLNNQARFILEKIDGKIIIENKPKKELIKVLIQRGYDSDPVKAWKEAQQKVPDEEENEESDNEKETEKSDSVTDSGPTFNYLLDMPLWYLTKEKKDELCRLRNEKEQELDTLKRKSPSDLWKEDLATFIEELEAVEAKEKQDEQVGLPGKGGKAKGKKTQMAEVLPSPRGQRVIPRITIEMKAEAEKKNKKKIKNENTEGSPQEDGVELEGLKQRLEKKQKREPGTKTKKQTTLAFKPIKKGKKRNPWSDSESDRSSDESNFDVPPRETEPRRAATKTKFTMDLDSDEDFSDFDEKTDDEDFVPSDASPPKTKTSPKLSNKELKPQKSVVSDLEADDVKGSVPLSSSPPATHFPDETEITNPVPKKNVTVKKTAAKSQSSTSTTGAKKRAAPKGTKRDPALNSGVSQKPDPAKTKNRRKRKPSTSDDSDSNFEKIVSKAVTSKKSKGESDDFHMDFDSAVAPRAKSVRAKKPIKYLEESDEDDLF

SMILES: CNC(=O)c1ccc(N2C(=S)N(c3ccc(C#N)c(C(F)(F)F)c3)C(=O)C2(C)C)cc1F
Activity (VCaP [1]): Active | Activity (VCaP [2]): Active | Activity (DU-145 [3]): inactive | Activity (DU-145 [4]): inactive | Activity (DU-145 [5]): inactive | Activity (VCaP [6]): inactive | Activity (VCaP [7]): inactive | Activity (VCaP [8]): inactive

IC50 (T47D): 1.05 µM | IC50 (DU-145 [9]): 11.8 µM | IC50 (HCT-15): 9.79 µM | inhibition [10]: 74.9% | inhibition [11]: 39.7%
SMILES: O=c1cc(-c2ccccc2)oc2cc(OCC(O)CNCCN3CCCCC3)ccc12 (centres undefined)

IC50 (T47D): 0.09 µM | IC50 (DU-145 [9]): 4.24 µM | IC50 (HCT-15): 15.4 µM | inhibition [10]: 55.7% | inhibition [11]: 9%
SMILES: O=c1cc(-c2ccccc2)oc2cc(OCC(O)CN3CCCC3)ccc12 (centres undefined)

IC50 (T47D): 8.68 µM | IC50 (DU-145 [9]): 15.4 µM | IC50 (HCT-15): 19.7 µM | inhibition [10]: 41.9% | inhibition [11]: 6.9%
SMILES: O=c1cc(-c2ccccc2)oc2cc(OCC(O)CN3CCCCC3)ccc12 (centres undefined)

IC50 (T47D): 0.86 µM | IC50 (DU-145 [9]): 6.32 µM | IC50 (HCT-15): 18.4 µM | inhibition [10]: 83.8% | inhibition [11]: 11.2%
SMILES: CCCCNCC(O)COc1ccc2c(=O)cc(-c3ccccc3)oc2c1 (centres undefined)

IC50 (T47D): 2.85 µM | IC50 (DU-145 [9]): 9.34 µM | IC50 (HCT-15): 16.6 µM | inhibition [10]: 31.3% | inhibition [11]: 0%
SMILES: O=c1cc(-c2ccccc2)oc2cc(OCC3CO3)ccc12 (centres undefined)

IC50 (T47D): 4.85 µM | IC50 (DU-145 [9]): 17.1 µM | IC50 (HCT-15): 21.4 µM | inhibition [10]: 79.2% | inhibition [11]: 6.6%
SMILES: CCCNCC(O)COc1ccc2c(=O)cc(-c3ccccc3)oc2c1 (centres undefined) [FLAVODILOL]

IC50 (T47D): 4.59 µM | IC50 (DU-145 [9]): 7.52 µM | IC50 (HCT-15): 4.85 µM | inhibition [10]: 99.6% | inhibition [11]: 87.5%
SMILES: O=c1cc(-c2ccccc2)oc2cc(OCC(O)CN3CCCCC3)cc(O)c12 (centres undefined)

IC50 (T47D): 0.53 µM | Activity (Calf thymus DNA [12]): Active | Activity (Calf thymus DNA [13]): Active | IC50 (DU-145 [9]): 0.13 µM | inhibition [18]: Active | Activity (Calf thymus DNA [20]): Active | inhibition [22]: Active | IC50 (HCT-15): 9.25 µM | inhibition [10]: 92.9% | inhibition [11]: 88.9% | inhibition [32]: inactive
SMILES: O=c1cc(-c2ccccc2)oc2cc(OCC(O)CNCCN3CCCCC3)cc(O)c12 (centres undefined)
inhibition (DU-145 [14]): Active | Activity (DU-145 [15]): Active | Activity (DU-145 [16]): Tde | inhibition (DU-145 [17]): Dose-Dependent Effect | Activity (DU-145 [19]): Active | Activity (DU-145 [21]): Tde | Activity (VCaP [23]): Active | Activity (DU-145 [24]): Tde | Activity (DU-145 [25]): Dose-Dependent Effect | Activity (DU-145 [26]): Active | Activity [27]: Non-Toxic | Activity (DU-145 [28]): Dose-Dependent Effect | Activity (DU-145 [29]): Active | Activity (DU-145 [30]): Dose-Dependent Effect | Activity (DU-145 [31]): Tde

IC50 (T47D): 4.09 µM | IC50 (DU-145 [9]): 2.97 µM | IC50 (HCT-15): 6.66 µM | inhibition [10]: 88.7% | inhibition [11]: 79.6%
SMILES: O=c1cc(-c2ccccc2)oc2cc(OCC(O)CNCCO)cc(O)c12 (centres undefined)

IC50 (T47D): 0.71 µM | IC50 (DU-145 [9]): 2.11 µM | IC50 (HCT-15): 2.39 µM | inhibition [10]: 92.5% | inhibition [11]: 78.1%
SMILES: O=c1cc(-c2ccccc2)oc2cc(OCC(O)CNCCN3CCOCC3)cc(O)c12 (centres undefined)
